Measured values published in the supplement of paper PMC10307832.

How the values were obtained:
Assay in all cases: relative viability (nuclei count vs DMSO), 5 days (fraction); higher = more cells survive
[1] = compound: CC(C)N(CCCNC(=O)Nc1ccc(C(C)(C)C)cc1)C[C@H]1O[C@@H](n2ccc3c(N)ncnc32)[C@H](O)[C@@H]1O + N=C(N)NC(=N)NCCc1ccccc1 [Phenformin] (partner 250 µM)
How it was run: (§1)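 Each reported value is a median over duplicate plates. It expresses relative viability: treated-well nuclei count divided by vehicle-well nuclei count. Lung cancer cell lines in 1536-well plates were dosed by pin tool a day after seeding, alone with one drug or with a fixed anchor-drug dose plus five library-drug doses (not always all listed) in √10 steps, and nuclei were counted after 5 days.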

[2] = compound: CC(C)N(CCCNC(=O)Nc1ccc(C(C)(C)C)cc1)C[C@H]1O[C@@H](n2ccc3c(N)ncnc32)[C@H](O)[C@@H]1O + Nc1nc2[nH]cc(CCc3ccc(C(=O)N[C@@H](CCC(=O)O)C(=O)O)cc3)c2c(=O)[nH]1 [Pemetrexed] (partner 0.2 µM)
How it was run: as §1

Shikonin + OSI-027 = compound: CC(C)=CC[C@@H](O)C1=CC(=O)c2c(O)ccc(O)c2C1=O [Shikonin] + COc1cccc2cc(-c3nc([C@H]4CC[C@H](C(=O)O)CC4)n4ncnc(N)c34)[nH]c12 [OSI-027] (partner 0.5 µM)
How it was run: as §1

Shikonin + Crizotinib = compound: CC(C)=CC[C@@H](O)C1=CC(=O)c2c(O)ccc(O)c2C1=O [Shikonin] + C[C@@H](Oc1cc(-c2cnn(C3CCNCC3)c2)cnc1N)c1c(Cl)ccc(F)c1Cl [Crizotinib] (partner 1 µM)
How it was run: as §1

UMC-11
relative viability ([1]; first compound 0.08 µM): 0.321
relative viability ([1]; first compound 0.253 µM): 0.302
relative viability ([1]; first compound 0.8 µM): 0.296
relative viability ([1]; first compound 2.53 µM): 0.349
relative viability ([1]; first compound 8 µM): 0.322
relative viability ([2]; first compound 0.08 µM): 0.803
relative viability ([2]; first compound 0.253 µM): 0.748
relative viability ([2]; first compound 0.8 µM): 0.791
relative viability ([2]; first compound 2.53 µM): 0.79
relative viability ([2]; first compound 8 µM): 0.806
relative viability (Shikonin + OSI-027; first compound 0.01 µM): 0.469
relative viability (Shikonin + OSI-027; first compound 0.1 µM): 0.532
relative viability (Shikonin + OSI-027; first compound 0.3162 µM): 0.492
relative viability (Shikonin + OSI-027; first compound 1 µM): 0.526
relative viability (Shikonin + Crizotinib; first compound 0.01 µM): 0.745
relative viability (Shikonin + Crizotinib; first compound 0.1 µM): 0.559
relative viability (Shikonin + Crizotinib; first compound 0.3162 µM): 0.658
relative viability (Shikonin + Crizotinib; first compound 1 µM): 0.633
